System: T1, trypsin
T1 construct: gene PRSS1; commercial-type enzyme; bovine is only a guess (porcine equally possible)
Experiment: casein digestion, perchloric acid precipitation, absorbance […] nm
Format: biochemical
Settings: casein 0.8% substrate, Tris-HCl pH 7.4, 37°C, 5 min preincubation

Protein inhibition denaturation IC50: 430 ± 100 µg/mL
Compound: CC(=O)Oc1ccccc1C(=O)O [aspirin]

From PMC8959664, “Elucidating Therapeutic and Biological Potential of Berberis baluchistanica Ahrendt Bark, Leaf, and Root Extracts” (Frontiers in Microbiology, 2022)
